Tests used:
[1] = biological target: G protein-coupled receptor kinase 4 (Homo sapiens) (UniProt P32298); details: at 10 µM
[2] = biological target: [Pyruvate dehydrogenase (acetyl-transferring)] kinase isozyme 1, mitochondrial (Homo sapiens, UniProt Q15118); test: Selectivity interaction (Kinase screening (Upstate/Millipore)) EUB0000604a PDK1
[3] = biological target: Mitogen-activated protein kinase kinase kinase kinase 4 (Homo sapiens, UniProt O95819); details: at 10 µM
[4] = biological target: Histamine H1 receptor (Homo sapiens, UniProt P35367); test: Selectivity interaction (Panel of non-epigenetic targets (kinases, GPCRs, ion channels, and transporters, Eurofins) ) EUB0000271b HRH1; details: at 1 µM
Histamine H1 receptor, sequence (P35367 whole entry): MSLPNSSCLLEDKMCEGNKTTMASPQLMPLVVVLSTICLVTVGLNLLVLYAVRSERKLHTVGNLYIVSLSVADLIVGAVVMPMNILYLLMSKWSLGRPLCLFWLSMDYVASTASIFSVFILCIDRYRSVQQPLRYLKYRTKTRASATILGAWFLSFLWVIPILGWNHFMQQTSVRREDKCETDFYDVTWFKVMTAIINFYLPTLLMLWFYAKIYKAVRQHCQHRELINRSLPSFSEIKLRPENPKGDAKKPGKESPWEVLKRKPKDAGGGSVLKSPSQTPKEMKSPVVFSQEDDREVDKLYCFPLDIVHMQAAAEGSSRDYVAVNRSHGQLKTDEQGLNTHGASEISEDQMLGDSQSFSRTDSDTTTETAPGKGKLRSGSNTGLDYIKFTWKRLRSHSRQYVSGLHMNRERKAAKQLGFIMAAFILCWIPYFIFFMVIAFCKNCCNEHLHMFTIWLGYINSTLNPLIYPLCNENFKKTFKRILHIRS

[5] = biological target: T1, Cyclin-dependent kinase 11A (Homo sapiens) (UniProt Q9UQ88); test: Selectivity interaction (KinomeScan (DiscoverX)) EUB0001079a CDK11A; details: at 1 µM
T1 sequence (whole entry): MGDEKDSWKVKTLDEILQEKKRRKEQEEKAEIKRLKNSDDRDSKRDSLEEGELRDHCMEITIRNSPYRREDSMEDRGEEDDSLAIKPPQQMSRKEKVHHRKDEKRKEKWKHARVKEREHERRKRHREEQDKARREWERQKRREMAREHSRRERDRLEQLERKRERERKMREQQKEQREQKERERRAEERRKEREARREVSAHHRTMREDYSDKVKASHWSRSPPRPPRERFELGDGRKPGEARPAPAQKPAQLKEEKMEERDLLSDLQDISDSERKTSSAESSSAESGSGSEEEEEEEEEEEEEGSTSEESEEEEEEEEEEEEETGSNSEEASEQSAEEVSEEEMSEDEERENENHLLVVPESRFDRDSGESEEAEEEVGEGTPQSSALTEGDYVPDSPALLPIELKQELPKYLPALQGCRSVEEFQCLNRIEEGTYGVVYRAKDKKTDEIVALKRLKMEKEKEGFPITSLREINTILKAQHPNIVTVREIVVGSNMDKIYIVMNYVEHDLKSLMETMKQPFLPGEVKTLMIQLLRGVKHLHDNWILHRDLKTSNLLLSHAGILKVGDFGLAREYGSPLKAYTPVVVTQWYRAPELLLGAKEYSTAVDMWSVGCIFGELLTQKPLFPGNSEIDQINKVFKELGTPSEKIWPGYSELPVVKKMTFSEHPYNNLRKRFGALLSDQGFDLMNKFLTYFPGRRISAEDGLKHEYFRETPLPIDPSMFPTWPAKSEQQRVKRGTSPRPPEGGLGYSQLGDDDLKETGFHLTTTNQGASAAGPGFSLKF

[6] = biological target: T2, Tyrosine-protein kinase receptor TYRO3 (Homo sapiens) (UniProt Q06418); test: Selectivity interaction (Upstate Kinase Profiler service (Millipore)) EUB0000056c TYRO3; details: at 1 µM
T2 sequence (whole entry): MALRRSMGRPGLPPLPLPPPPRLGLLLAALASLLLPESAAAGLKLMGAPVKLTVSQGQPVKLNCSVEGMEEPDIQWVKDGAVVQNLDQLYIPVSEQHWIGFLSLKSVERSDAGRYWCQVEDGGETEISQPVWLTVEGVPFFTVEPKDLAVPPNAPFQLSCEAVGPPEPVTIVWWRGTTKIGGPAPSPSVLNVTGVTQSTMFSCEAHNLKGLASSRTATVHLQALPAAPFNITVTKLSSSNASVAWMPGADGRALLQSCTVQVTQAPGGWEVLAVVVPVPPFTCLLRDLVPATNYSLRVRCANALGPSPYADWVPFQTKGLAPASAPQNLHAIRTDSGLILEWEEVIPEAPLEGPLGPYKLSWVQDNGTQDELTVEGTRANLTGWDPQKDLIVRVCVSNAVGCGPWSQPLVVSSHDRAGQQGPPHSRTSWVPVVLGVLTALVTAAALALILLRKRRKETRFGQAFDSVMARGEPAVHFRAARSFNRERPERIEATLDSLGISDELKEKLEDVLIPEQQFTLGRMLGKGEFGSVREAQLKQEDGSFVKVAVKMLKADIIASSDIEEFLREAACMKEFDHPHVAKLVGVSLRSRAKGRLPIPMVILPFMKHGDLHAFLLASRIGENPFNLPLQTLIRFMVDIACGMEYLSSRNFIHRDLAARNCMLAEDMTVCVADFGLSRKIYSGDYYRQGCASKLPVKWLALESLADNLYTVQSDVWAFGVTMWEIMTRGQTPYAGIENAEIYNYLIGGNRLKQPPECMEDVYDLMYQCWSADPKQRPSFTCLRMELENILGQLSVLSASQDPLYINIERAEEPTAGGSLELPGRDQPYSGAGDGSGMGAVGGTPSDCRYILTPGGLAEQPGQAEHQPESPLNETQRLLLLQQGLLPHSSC

[7] = biological target: Serine/threonine-protein kinase PLK2 (Homo sapiens, UniProt Q9NYY3); test: Selectivity interaction (KinomeScan (DiscoverX)) EUB0000655a PLK2; details: at 10 µM
Serine/threonine-protein kinase PLK2, sequence (Q9NYY3 whole entry, looked up): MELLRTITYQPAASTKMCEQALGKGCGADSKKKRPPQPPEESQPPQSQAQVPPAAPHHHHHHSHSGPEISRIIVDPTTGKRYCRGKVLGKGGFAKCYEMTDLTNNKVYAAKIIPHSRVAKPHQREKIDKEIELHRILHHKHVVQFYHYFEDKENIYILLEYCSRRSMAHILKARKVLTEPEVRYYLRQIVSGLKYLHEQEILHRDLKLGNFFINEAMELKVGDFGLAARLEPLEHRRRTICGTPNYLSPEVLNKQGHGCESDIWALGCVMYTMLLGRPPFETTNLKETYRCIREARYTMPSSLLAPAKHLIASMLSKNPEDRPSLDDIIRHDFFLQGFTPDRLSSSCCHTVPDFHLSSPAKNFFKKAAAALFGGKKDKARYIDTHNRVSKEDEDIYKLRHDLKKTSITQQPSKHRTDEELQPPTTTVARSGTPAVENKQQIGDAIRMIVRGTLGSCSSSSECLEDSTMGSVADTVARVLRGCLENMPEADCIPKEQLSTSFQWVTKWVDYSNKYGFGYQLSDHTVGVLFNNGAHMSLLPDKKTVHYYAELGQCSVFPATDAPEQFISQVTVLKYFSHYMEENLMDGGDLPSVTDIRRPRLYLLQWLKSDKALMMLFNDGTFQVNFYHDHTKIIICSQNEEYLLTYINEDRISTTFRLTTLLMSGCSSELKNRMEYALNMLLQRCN

[8] = biological target: Mitogen-activated protein kinase 7 (Homo sapiens) (UniProt Q13164); test: Selectivity interaction (KinomeScan (DiscoverX)) EUB0001619a MAPK7; details: at 1 µM
Mitogen-activated protein kinase 7 (Homo sapiens), sequence (Q13164 2-816 limits assumed): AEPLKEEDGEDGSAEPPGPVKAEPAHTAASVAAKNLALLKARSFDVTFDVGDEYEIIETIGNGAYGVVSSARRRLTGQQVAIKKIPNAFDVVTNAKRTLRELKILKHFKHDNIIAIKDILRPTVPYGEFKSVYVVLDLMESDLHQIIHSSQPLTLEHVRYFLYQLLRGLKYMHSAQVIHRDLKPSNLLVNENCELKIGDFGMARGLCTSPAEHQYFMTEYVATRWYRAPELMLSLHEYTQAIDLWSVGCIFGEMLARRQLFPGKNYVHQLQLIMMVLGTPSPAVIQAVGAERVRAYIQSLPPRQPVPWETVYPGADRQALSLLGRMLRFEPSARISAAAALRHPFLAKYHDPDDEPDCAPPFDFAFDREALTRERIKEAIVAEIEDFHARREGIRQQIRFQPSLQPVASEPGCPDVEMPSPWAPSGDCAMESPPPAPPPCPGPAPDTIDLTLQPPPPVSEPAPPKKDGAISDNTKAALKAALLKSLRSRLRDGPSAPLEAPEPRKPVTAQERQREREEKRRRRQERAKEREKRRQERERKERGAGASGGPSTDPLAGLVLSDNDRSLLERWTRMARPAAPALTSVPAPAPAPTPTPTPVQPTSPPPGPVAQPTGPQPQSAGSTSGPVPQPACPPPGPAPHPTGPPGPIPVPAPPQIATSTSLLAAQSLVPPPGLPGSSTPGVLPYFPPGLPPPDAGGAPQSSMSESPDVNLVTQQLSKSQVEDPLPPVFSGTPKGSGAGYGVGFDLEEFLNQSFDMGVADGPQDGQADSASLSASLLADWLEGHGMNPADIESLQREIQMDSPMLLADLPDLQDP

Mitogen-activated protein kinase kinase kinase kinase 4, sequence (O95819 2-1239 limits assumed): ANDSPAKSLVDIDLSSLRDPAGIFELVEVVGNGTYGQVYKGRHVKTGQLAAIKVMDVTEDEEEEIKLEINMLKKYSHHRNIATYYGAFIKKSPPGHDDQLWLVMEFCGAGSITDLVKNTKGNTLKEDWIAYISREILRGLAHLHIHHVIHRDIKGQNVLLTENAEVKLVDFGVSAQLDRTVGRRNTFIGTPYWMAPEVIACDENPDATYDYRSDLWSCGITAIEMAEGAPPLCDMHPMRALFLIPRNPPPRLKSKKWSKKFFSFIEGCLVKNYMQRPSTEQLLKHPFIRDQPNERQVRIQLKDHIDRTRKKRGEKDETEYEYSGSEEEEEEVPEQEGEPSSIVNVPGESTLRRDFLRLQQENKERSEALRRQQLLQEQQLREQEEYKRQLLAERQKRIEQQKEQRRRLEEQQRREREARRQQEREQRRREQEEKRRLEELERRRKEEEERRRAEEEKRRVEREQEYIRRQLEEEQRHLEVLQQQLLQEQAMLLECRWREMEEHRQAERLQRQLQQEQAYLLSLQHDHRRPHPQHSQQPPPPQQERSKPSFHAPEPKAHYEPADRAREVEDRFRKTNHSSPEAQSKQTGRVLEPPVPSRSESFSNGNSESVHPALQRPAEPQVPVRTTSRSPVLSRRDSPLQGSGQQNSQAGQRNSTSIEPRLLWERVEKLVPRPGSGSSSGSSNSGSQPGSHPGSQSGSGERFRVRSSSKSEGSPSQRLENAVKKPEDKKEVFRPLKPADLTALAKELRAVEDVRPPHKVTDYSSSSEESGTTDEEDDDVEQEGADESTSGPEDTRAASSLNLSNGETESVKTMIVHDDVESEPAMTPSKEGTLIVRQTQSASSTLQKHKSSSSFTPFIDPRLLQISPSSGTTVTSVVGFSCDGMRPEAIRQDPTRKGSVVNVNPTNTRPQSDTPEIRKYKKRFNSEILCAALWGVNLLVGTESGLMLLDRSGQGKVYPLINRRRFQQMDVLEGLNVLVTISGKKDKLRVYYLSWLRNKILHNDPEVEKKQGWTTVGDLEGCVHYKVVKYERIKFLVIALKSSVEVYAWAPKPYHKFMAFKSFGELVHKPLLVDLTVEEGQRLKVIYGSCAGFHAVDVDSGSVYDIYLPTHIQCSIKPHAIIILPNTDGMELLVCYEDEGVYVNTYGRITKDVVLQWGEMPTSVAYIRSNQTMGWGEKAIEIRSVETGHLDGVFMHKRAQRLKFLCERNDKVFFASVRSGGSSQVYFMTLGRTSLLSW
G protein-coupled receptor kinase 4 (Homo sapiens), sequence (P32298 whole entry, looked up): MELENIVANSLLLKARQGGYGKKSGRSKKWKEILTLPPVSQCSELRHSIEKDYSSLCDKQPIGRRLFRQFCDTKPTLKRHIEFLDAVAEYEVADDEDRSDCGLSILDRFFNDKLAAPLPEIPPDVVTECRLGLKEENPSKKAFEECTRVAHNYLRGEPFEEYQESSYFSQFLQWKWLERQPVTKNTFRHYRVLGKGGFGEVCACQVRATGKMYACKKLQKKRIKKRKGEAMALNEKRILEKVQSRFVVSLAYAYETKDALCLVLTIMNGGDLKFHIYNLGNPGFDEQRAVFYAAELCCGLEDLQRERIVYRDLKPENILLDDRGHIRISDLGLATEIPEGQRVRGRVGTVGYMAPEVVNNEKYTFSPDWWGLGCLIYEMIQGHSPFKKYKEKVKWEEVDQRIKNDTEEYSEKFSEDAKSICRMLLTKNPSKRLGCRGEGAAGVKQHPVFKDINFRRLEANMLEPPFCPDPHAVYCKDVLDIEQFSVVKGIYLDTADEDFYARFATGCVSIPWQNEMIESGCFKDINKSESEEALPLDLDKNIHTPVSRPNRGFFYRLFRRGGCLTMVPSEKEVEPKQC

**Q.** `Cc1cc([C@@H](C)Nc2ccccc2C(=O)O)c2nc(N3CCOCC3)cc(=O)n2c1` [AZD-6482] was tested. Which % of control [1] did it give?
**A.** 90%

**Q.** `Cc1cnc(Nc2ccc(F)cc2Cl)nc1-c1c[nH]c(C(=O)N[C@H](CO)c2cccc(Cl)c2)c1` was tested. Which % of inhibition [2] did it give?
**A.** 10%

**Q.** For `CCN(CC)CCCCNc1ncc2cc(-c3cc(OC)cc(OC)c3)c(NC(=O)NC(C)(C)C)nc2n1`, which % of control [3] is on record?
**A.** 100%

**Q.** With `Cc1cc(C)cc([C@@H]2c3cc(C)ccc3NC(=O)CN2C(=O)c2ccc(Br)s2)c1` as the molecule, how does the % of inhibition [4] read?
**A.** 0%

**Q.** `Nc1cnc(N2CCc3cc(S(=O)(=O)Nc4c(F)cc(Cl)cc4F)cc(N4CCCC4=O)c32)nc1` [TP-020n] was tested. Which % of control [5] did it give?
**A.** 89%

**Q.** With `Cc1ccc(-c2ccc3c(ccc4sc5c(c43)NC[C@@H](C)NC5=O)n2)cn1` as the molecule, how does the % of inhibition [6] read?
**A.** 10%

**Q.** `CN(C)CCOc1ccc(-c2nc(-c3ccncc3)c(-c3ccc4c(c3)CC/C4=N\O)[nH]2)cc1` was tested. Which % of control [7] did it give?
**A.** 92%

**Q.** How did the % of control [8] turn out when `N#Cc1cccc(-c2c[nH]c3ncnc(N4CCOCC4)c23)c1` was run?
**A.** 100%
